According to ChEMBL document CHEMBL5604063, “ASAP - DENV-2 NS2B-NS3 protease fluorescence dose response” (2024):
pIC50: −log10 of the molar value. Where “and” joins values, the source holds several entries; their conditions need not be identical. Equal values may be shown once.

What was measured:
[1] = target: T1, Genome polyprotein (dengue virus type 2, UniProt P29990); type: functional, Thailand/16681/1984
[2] = target: T1, Genome polyprotein; type: functional, Thailand/16681/1984; remark: listed apart in the source

T1 sequence (P29990 1346-1475 limits assumed): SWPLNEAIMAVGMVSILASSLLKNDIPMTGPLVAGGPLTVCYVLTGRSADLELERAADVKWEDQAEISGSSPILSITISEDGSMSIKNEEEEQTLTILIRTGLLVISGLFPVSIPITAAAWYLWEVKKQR
T1 sequence (P29990 1476-2093 limits assumed): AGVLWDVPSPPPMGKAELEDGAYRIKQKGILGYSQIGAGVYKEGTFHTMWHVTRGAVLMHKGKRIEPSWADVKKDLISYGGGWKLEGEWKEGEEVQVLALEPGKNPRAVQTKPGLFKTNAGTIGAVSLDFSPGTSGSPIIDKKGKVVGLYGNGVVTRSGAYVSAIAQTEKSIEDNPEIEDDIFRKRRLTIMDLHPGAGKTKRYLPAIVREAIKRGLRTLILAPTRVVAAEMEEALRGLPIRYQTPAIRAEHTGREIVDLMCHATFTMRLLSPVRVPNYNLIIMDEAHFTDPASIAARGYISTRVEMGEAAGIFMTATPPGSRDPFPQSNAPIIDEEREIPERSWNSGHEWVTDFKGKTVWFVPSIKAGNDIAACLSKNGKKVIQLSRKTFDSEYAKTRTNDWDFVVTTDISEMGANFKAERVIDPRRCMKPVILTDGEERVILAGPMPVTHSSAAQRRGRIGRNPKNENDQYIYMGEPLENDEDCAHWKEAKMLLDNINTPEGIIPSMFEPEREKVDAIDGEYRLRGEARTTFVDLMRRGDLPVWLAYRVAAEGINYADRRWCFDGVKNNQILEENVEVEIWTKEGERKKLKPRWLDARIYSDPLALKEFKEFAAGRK

NCc1cccc(NC(=O)[C@@H]2CCC[C@H](OC(F)(F)F)C2)c1
pIC50 [1]: < 4.00
pIC50 [2]: < 4.00

NCc1cccc(NC(=O)c2cncc(Cl)c2)c1
pIC50 [1]: < 4.00
pIC50 [2]: < 4.00

Cc1cc(C(=O)Nc2cccc(CN)c2)cc(NCC(F)(F)F)n1
pIC50 [1]: < 4.00
pIC50 [2]: < 4.00

Cc1cc(C(=O)Nc2cccc(CN)c2)c2nc(C)n(C)c2n1
pIC50 [1]: < 4.00
pIC50 [2]: < 4.00

Cc1cc(C)c([C@@H](CC(=O)Nc2cccc(CN)c2)NC(=O)OCc2ccccc2)cc1C
pIC50 [1]: 5.15 and 5.14
pIC50 [2]: 4.93

Cn1cc(-c2cccc([C@@H](NC(=O)OCc3ccccc3)C(=O)Nc3cccc(CN)c3)c2)ccc1=O
pIC50 [1]: < 4.00
pIC50 [2]: < 4.00

CC(F)(F)c1cccc(NC(=O)c2cc(Cl)cc(NC(=O)OCc3ccccc3)c2)c1
pIC50 [1]: < 4.00
pIC50 [2]: < 4.00

O=C(Nc1cc(Cl)cc(C(=O)Nc2cccc(-c3nnn[nH]3)c2)c1)OCc1ccccc1
pIC50 [1]: 4.87
pIC50 [2]: 4.96

C[C@@H]1C[C@@H](C(=O)Nc2cccc(CN)c2)CCO1
pIC50 [1]: < 4.00
pIC50 [2]: < 4.00

CN(C)[C@@H]1CCC[C@H](C(=O)Nc2cccc(CN)c2)C1
pIC50 [1]: < 4.00
pIC50 [2]: < 4.00

C[C@@H]1CCC[C@H](C(=O)Nc2cccc(CN)c2)O1
pIC50 [1]: < 4.00
pIC50 [2]: < 4.00

NCc1cccc(NC(=O)c2cc(Br)cc3[nH]ccc23)c1
pIC50 [1]: < 4.00
pIC50 [2]: < 4.00

Cc1cc(C(F)(F)F)nc(C(=O)Nc2cccc(CN)c2)n1
pIC50 [1]: < 4.00
pIC50 [2]: < 4.00

Cc1cc(C(=O)Nc2cccc(CN)c2)c2c(C)n[nH]c2n1
pIC50 [1]: < 4.00
pIC50 [2]: < 4.00

NCc1cccc(NC(=O)[C@H]2COCC3(CCC3)O2)c1
pIC50 [1]: < 4.00
pIC50 [2]: < 4.00

Brc1cnc(Sc2ncc[nH]2)nc1
pIC50 [1]: < 4.00
pIC50 [2]: < 4.00

C[C@H]1CN(C)C[C@H](C(=O)Nc2cccc(CN)c2)O1
pIC50 [1]: < 4.00
pIC50 [2]: < 4.00

NCc1cccc(NC(=O)c2cc(Cl)cc3[nH]ncc23)c1
pIC50 [1]: < 4.00
pIC50 [2]: < 4.00

CC[C@@H](Cc1nnn[nH]1)c1ccc(NC(=O)c2cc(Cl)cc(NC(=O)OCc3ccccc3)c2)cc1
pIC50 [1]: 5.05
pIC50 [2]: 5.09 and 5.06

O=C(Nc1cc(Cl)cc(C(=O)Nc2cccc(Cc3nn[nH]n3)c2)c1)OCc1ccccc1
pIC50 [1]: 4.66
pIC50 [2]: < 4.00

CC(=O)NCc1cccc(NC(=O)c2cc(Cl)cc(NC(=O)OCc3ccccc3)c2)c1
pIC50 [1]: < 4.00
pIC50 [2]: < 4.00

C=C(C)c1cccc([C@@H](NC(=O)OCc2ccccc2)C(=O)Nc2cccc(CN)c2)c1
pIC50 [1]: 4.52
pIC50 [2]: < 4.00

NCc1cccc(NC(=O)c2cccc3c2CCC3)c1
pIC50 [1]: < 4.00
pIC50 [2]: < 4.00

CNCc1cc(Cl)cc(C(=O)Nc2cccc(CN)c2)c1
pIC50 [1]: < 4.00
pIC50 [2]: < 4.00

NCCc1cccc(-c2cccc([C@@H](NC(=O)OCc3ccccc3)C(=O)Nc3cccc(CN)c3)c2)c1
pIC50 [1]: 4.47
pIC50 [2]: < 4.00

NCc1cccc(NC(=O)[C@@H](NC(=O)OCc2ccccc2)c2cccc(-c3ccc(N)nc3)c2)c1
pIC50 [1]: < 4.00
pIC50 [2]: < 4.00

CC(C)(C)OC(=O)NCc1cc(Br)cc(NC(=O)c2cc(Cl)cc(NC(=O)OCc3ccccc3)c2)c1
pIC50 [1]: < 4.00
pIC50 [2]: < 4.00

CN(C)CC[C@H](NC(=O)c1cc(Cl)cc(NC(=O)OCc2ccccc2)c1)c1ccccc1
pIC50 [1]: < 4.00
pIC50 [2]: < 4.00

CCc1cccc(NC(=O)[C@]2(Oc3ccc(Br)cc3)CCNC3(CC3)C2)c1
pIC50 [1]: < 4.00
pIC50 [2]: < 4.00

NCc1cc(NS(=O)(=O)c2ccc(Oc3ccccc3Cl)cc2)ccc1Cl
pIC50 [1]: < 4.00
pIC50 [2]: < 4.00

CCn1ncc(-c2noc3nc(C)cc(C(=O)Nc4cccc(CN)c4)c23)c1C
pIC50 [1]: < 4.00
pIC50 [2]: < 4.00

NCc1cccc(NC(=O)[C@H]2CCc3nnc(C4CC4)n3C2)c1
pIC50 [1]: < 4.00
pIC50 [2]: < 4.00

C[C@H]1CN(Cc2ccccc2)C[C@@H](C(=O)Nc2cccc(CN)c2)O1
pIC50 [1]: < 4.00
pIC50 [2]: < 4.00

COc1ccc2c(c1)c(C(=O)Nc1cccc(CN)c1)c(C)n2C1CCCC1
pIC50 [1]: < 4.00
pIC50 [2]: < 4.00

Cc1cc(Cl)cc(C(=O)Nc2cccc(CN)c2)n1
pIC50 [1]: < 4.00
pIC50 [2]: < 4.00

CN1CC=C(c2cccc([C@@H](NC(=O)OCc3ccccc3)C(=O)Nc3cccc(CN)c3)c2)CC1
pIC50 [1]: < 4.00
pIC50 [2]: < 4.00

NCc1cccc(NC(=O)c2cc(Cl)cc(CN3CCOCC3)c2)c1
pIC50 [1]: < 4.00
pIC50 [2]: < 4.00

O=S(=O)(Cc1nnc(Cc2ccccc2)o1)c1ccc(O)cc1
pIC50 [1]: < 4.00
pIC50 [2]: < 4.00

CCOc1cccc(-c2ccc(S(=O)(=O)Nc3cc(F)c(Cl)cc3C(=O)O)cc2)c1
pIC50 [1]: 5.29
pIC50 [2]: 5.14

NCc1cc(Cl)cc(C(=O)Nc2ccc3c(c2)CNC3)c1
pIC50 [1]: < 4.00
pIC50 [2]: < 4.00

C[C@@H](N)c1cc(Cl)cc(C(=O)Nc2cccc(CN)c2)c1
pIC50 [1]: < 4.00
pIC50 [2]: < 4.00

CN1CCc2c(cccc2NC(=O)c2cc(Cl)cc(NC(=O)OCc3ccccc3)c2)C1
pIC50 [1]: < 4.00
pIC50 [2]: < 4.00

O=C(Nc1cc(Cl)cc(C(=O)Nc2cccc(-n3nn[nH]c3=O)c2)c1)OCc1ccccc1
pIC50 [1]: 4.96 and 4.94
pIC50 [2]: 5.06 and 5.03
